Results taken from PubChem BioAssay AID248 (DTP/NCI, 2004).
Several values for one entry are separate records, joined by “and”; a condition that tells them apart may be missing. Equal values may be shown once. Inconclusive results and toxic doses are left out. Cut-off read from the data, not from the text of the source: active = T/C of 150% or more; inactive = T/C below 125%.

Test system: L1210 leukemia ip in BDF1 mice, survival T/C
Assay: NCI In Vivo Anticancer Drug Screen. Data for tumor model L1210 Leukemia (intraperitoneal) in B6D2F1 (BDF1) mice
Conditions: endpoint: mean survival time, higher = longer survival
Procedure, shortened: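 In this screen, tumor-bearing mice given compound are compared to those given vehicle, and their survival values are reported as a treated-to-control quotient.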

[1] = dose: 25.0 mg/kg/injection, schedule: Q01DX009 (ip), vehicle: saline with Tween-80
[2] = dose: 50.0 mg/kg/injection, schedule: Q01DX009 (ip), vehicle: saline with Tween-80
[3] = dose: 100.0 mg/kg/injection, schedule: Q01DX009 (ip), vehicle: saline with Tween-80
[4] = dose: 100.0 mg/kg/injection, schedule: Q04DX003 (ip), vehicle: saline with Tween-80
[5] = dose: 200.0 mg/kg/injection, schedule: Q04DX003 (ip), vehicle: saline with Tween-80
[6] = dose: 100.0 mg/kg/injection, schedule: Q04DX003 (ip), vehicle: saline
[7] = dose: 200.0 mg/kg/injection, schedule: Q04DX003 (ip), vehicle: saline
[8] = dose: 400.0 mg/kg/injection, schedule: Q04DX003 (ip), vehicle: saline with Tween-80
[9] = dose: 100.0 mg/kg/injection, schedule: Q04DX003 (ip), vehicle: Klucel (hydroxypropylcellulose) (HPC)
[10] = dose: 100.0 mg/kg/injection, schedule: Q01DX009 (ip), vehicle: Klucel (hydroxypropylcellulose) (HPC)
[11] = dose: 200.0 mg/kg/injection, schedule: Q01DX009 (ip), vehicle: Klucel (hydroxypropylcellulose) (HPC)
[12] = dose: 50.0 mg/kg/injection, schedule: Q01DX009 (ip), vehicle: saline
[13] = dose: 100.0 mg/kg/injection, schedule: Q01DX009 (ip), vehicle: saline
[14] = dose: 200.0 mg/kg/injection, schedule: Q01DX009 (ip), vehicle: saline
[15] = dose: 200.0 mg/kg/injection, schedule: Q01DX009 (ip), vehicle: saline with Tween-80

Measured: T/C

Cc1nc(C)c(Br)s1
inactive: [1] 97 % of control | [2] 96 % of control | [3] 112 % of control | [4] 105 % of control | [5] 110 % of control

CN(CCC#N)CCC#N
inactive: [6] 109 % of control | [7] 94 % of control | dose: 400.0 mg/kg/injection, schedule: Q04DX003 (ip), vehicle: saline 101 % of control

O=C(C1C2CCC(C2)C1C(=O)N1CCCCC1)N1CCCCC1 (stereo not drawn)
inactive: [4] 100 % of control | [5] 100 % of control | [8] 100 % of control

Cc1cc(CSC(=N)N)c(CSC(=N)N)cc1C
inactive: dose: 10.0 mg/kg/injection, schedule: Q01DX001 (ip), vehicle: saline 97 % of control | dose: 20.0 mg/kg/injection, schedule: Q01DX001 (ip), vehicle: saline 94 % of control | dose: 40.0 mg/kg/injection, schedule: Q01DX001 (ip), vehicle: saline 94 % of control

CCCCNC(=O)C1CC2c3cc(Br)cc4[nH]c(Br)c(c34)CC2N(C)C1 (stereo not drawn)
inactive: dose: 25.0 mg/kg/injection, schedule: Q04DX003 (ip), vehicle: Klucel (hydroxypropylcellulose) (HPC) 96 % of control | [9] 91 % of control | dose: 400.0 mg/kg/injection, schedule: Q04DX003 (ip), vehicle: Klucel (hydroxypropylcellulose) (HPC) 89 % of control

Nc1snc2ncccc12
inactive: dose: 50.0 mg/kg/injection, schedule: Q01DX009 (ip), vehicle: Klucel (hydroxypropylcellulose) (HPC) 97 % of control | [10] 92 % of control | [9] 89 % of control | [11] 103 % of control | dose: 200.0 mg/kg/injection, schedule: Q04DX003 (ip), vehicle: Klucel (hydroxypropylcellulose) (HPC) 87 % of control

SCC1SCCCS1
inactive: dose: 12.5 mg/kg/injection, schedule: Q04DX002 (ip), vehicle: saline with Tween-80 97 % of control | dose: 25.0 mg/kg/injection, schedule: Q04DX002 (ip), vehicle: saline with Tween-80 113 % of control | dose: 50.0 mg/kg/injection, schedule: Q04DX002 (ip), vehicle: saline with Tween-80 97 % of control

CN(Cc1ccccc1)C(=O)c1cccc(C(=O)N(C)Cc2ccccc2)c1
inactive: dose: 100.0 mg/kg/injection, schedule: Q01DX009 (ip), vehicle: other 97 % of control | dose: 200.0 mg/kg/injection, schedule: Q01DX009 (ip), vehicle: other 97 % of control | dose: 400.0 mg/kg/injection, schedule: Q01DX009 (ip), vehicle: other 94 % of control

ClC1(Cl)C2CCC3C(CCC21)C3(Cl)Cl (stereo not drawn)
inactive: [10] 100 % of control | [11] 107 % of control | dose: 400.0 mg/kg/injection, schedule: Q01DX009 (ip), vehicle: Klucel (hydroxypropylcellulose) (HPC) 107 % of control

O=C(NCCCCC(NC(=O)c1ccccc1)C(=O)NCCCCCCNCCCCCCNC(=O)C(CCCCNC(=O)c1ccccc1)NC(=O)c1ccccc1)c1ccccc1 (stereo not drawn)
inactive: dose: 10.0 mg/kg/injection, schedule: Q01DX Z (ip), vehicle: saline 96 % of control | dose: 30.0 mg/kg/injection, schedule: Q01DX Z (ip), vehicle: saline 102 % of control | dose: 100.0 mg/kg/injection, schedule: Q01DX Z (ip), vehicle: saline 100 % of control | dose: 300.0 mg/kg/injection, schedule: Q01DX Z (ip), vehicle: saline 100 % of control

O=[N+]([O-])c1ccc2c(c1)-c1ccccc1C2Br (stereo not drawn)
inactive: dose: 100.0 mg/kg/injection, schedule: Q01DX005 (ip), vehicle: Klucel (hydroxypropylcellulose) (HPC) 88 % of control | dose: 100.0 mg/kg/injection, schedule: Q04DX002 (ip), vehicle: Klucel (hydroxypropylcellulose) (HPC) 117 % of control | dose: 200.0 mg/kg/injection, schedule: Q04DX002 (ip), vehicle: Klucel (hydroxypropylcellulose) (HPC) 101 % of control | dose: 400.0 mg/kg/injection, schedule: Q01DX005 (ip), vehicle: Klucel (hydroxypropylcellulose) (HPC) 102 % of control | dose: 400.0 mg/kg/injection, schedule: Q04DX002 (ip), vehicle: Klucel (hydroxypropylcellulose) (HPC) 90 % of control

CCCCNC(=O)NC(=O)C(C)(C)Oc1ccc(Cl)cc1
inactive: [12] 103 % of control | [13] 103 % of control | [14] 95 % of control

CCCCCCCCC(=O)CCCCCC
inactive: [3] 99 % of control | [4] 105 % of control | [15] 97 % of control | [5] 108 % of control | dose: 400.0 mg/kg/injection, schedule: Q01DX009 (ip), vehicle: saline with Tween-80 99 % of control | [8] 101 % of control

CCN1CC2C3CCC(C)(O3)C2C1 (stereo not drawn)
inactive: dose: 44.0 mg/kg/injection, schedule: Q01DX Z (ip), vehicle: methylcellulose (MC) 100 % of control | dose: 66.0 mg/kg/injection, schedule: Q01DX Z (ip), vehicle: methylcellulose (MC) 92 % of control | dose: 100.0 mg/kg/injection, schedule: Q01DX Z (ip), vehicle: methylcellulose (MC) 98 % of control

CCOC(CNC(=S)Nc1ccccc1)OCC
inactive: dose: 100.0 mg/kg/injection, schedule: Q01DX001 (ip), vehicle: carboxymethylcellulose (CMC) 89 % of control | dose: 200.0 mg/kg/injection, schedule: Q01DX001 (ip), vehicle: carboxymethylcellulose (CMC) 95 % of control | dose: 400.0 mg/kg/injection, schedule: Q01DX001 (ip), vehicle: carboxymethylcellulose (CMC) 95 % of control

CCC(CCCN(CC)CCc1ccccc1)OC(=O)c1cc(OC)c(OC)c(OC)c1 (stereo not drawn)
inactive: dose: 4.68 mg/kg/injection, schedule: Q01DX009 (ip), vehicle: saline 106 % of control | dose: 9.37 mg/kg/injection, schedule: Q01DX009 (ip), vehicle: saline 100 % of control | dose: 18.75 mg/kg/injection, schedule: Q01DX009 (ip), vehicle: saline 100 % of control | dose: 18.75 mg/kg/injection, schedule: Q04DX003 (ip), vehicle: saline 118 % of control | dose: 37.5 mg/kg/injection, schedule: Q01DX009 (ip), vehicle: saline 100 % of control | dose: 37.5 mg/kg/injection, schedule: Q04DX003 (ip), vehicle: saline 97 % of control | dose: 75.0 mg/kg/injection, schedule: Q01DX009 (ip), vehicle: saline 95 % of control | dose: 75.0 mg/kg/injection, schedule: Q04DX003 (ip), vehicle: saline 103 % of control

COC(=O)C(C)(N)Cc1ccc(O)cc1 (stereo not drawn)
inactive: [12] 102 % of control | [13] 97 % of control | [6] 96 % of control | [14] 105 % of control | [7] 93 % of control

CCN(C(=O)NC(C)(C)C)c1cccc(C)c1
inactive: dose: 12.5 mg/kg/injection, schedule: Q01DX009 (ip), vehicle: saline with Tween-80 108 % of control | [1] 105 % of control and 106 % of control | dose: 100.0 mg/kg/injection, schedule: Q01DX001 (ip), vehicle: saline with Tween-80 122 % of control | dose: 100.0 mg/kg/injection, schedule: Q04DX002 (ip), vehicle: saline with Tween-80 101 % of control and 86 % of control | [4] 102 % of control | dose: 200.0 mg/kg/injection, schedule: Q04DX002 (ip), vehicle: saline with Tween-80 94 % of control and 97 % of control | [5] 105 % of control | dose: 400.0 mg/kg/injection, schedule: Q01DX001 (ip), vehicle: saline with Tween-80 103 % of control | dose: 400.0 mg/kg/injection, schedule: Q04DX002 (ip), vehicle: saline with Tween-80 101 % of control

CC(C)(CCN(CC(=O)O)CC(=O)O)[N+](=O)[O-]
inactive: dose: 100.0 mg/kg/injection, schedule: Q01DX001 (ip), vehicle: saline 112 % of control | dose: 200.0 mg/kg/injection, schedule: Q01DX001 (ip), vehicle: saline 96 % of control | dose: 400.0 mg/kg/injection, schedule: Q01DX001 (ip), vehicle: saline 102 % of control

Brc1cscc1Cc1ccccc1
inactive: [2] 95 % of control | [3] 95 % of control | [15] 95 % of control

N#CSCN1C(=O)C2CC=CCC2C1=O (stereo not drawn)
inactive: dose: 25.0 mg/kg/injection, schedule: Q04DX003 (ip), vehicle: saline with Tween-80 97 % of control

O=C1SC2(CCCCC2)SC1=O
inactive: [2] 110 % of control | [3] 113 % of control | [4] 110 % of control | [5] 100 % of control
